These results are taken from patent publication US7297700B2, “Bicycloheteroaryl compounds as P2X7 modulators and uses thereof” (Renovis, Inc., priority 2005, dated 2007).

One may read the inhibition as the share of the control response that was lost under treatment.

In one assay the test system is IL-1β release from THP-1 cells. Description: IL-1β Release Assay (Alternate Method), THP-1 cells. It counts as cell-based, human. The conditions noted are these: Homo sapiens, THP-1, read-out: IL-1β % inhibition. In a few lines:
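IL-1β release, measured by ELISA, follows 45 min BzATP (250 uM final) stimulation of THP-1 cells given 30 min compound pretreatment. Cells were first primed 16 h with LPS and IFN-γ (100 ng/mL each), then 2 h with fresh LPS; inhibition expressed in percent after background correction.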
Turning to `O=C(CC12CC3CC(CC(C3)C1)C2)Nc1ncnc2c1CCN(CC(O)CO)C2` (stereo not shown) [Compound 23, 2-Adamantan-1-yl-N-[7-(2,3-dihydroxy-propyl)-5,6,7,8-tetrahydro-pyrido[3,4-d]pyrimidin-4-yl]-acetamide], the inhibition at 0.3 µM is 0 to 25%.

Still in this assay, the particulars now being: at 0.3 μM; THP-1 cells.
Turning to `Cc1c(C(=O)N2CCc3c(ncnc3NC(=O)CC34CC5CC(CC(C5)C3)C4)C2)cnn1-c1ccccc1` [Compound 288], the IL-1β % inhibition result is listed as “+ (compound exhibited 0-25% inhibition at 0.3 μM)”. With `O=C(NCC1(O)CCCCCC1)c1ncnc2c1CCN(Cc1ccccc1)C2` [Compound 58], the IL-1β % inhibition result is given as “+ (compound exhibited 0-25% inhibition at 0.3 μM)”.

For the compound `O=C(CC12CC3CC(CC(C3)C1)C2)Nc1ncnc2c1CCN(Cc1ccc(C(F)(F)F)cc1F)C2` [Compound 110], the IL-1β % inhibition entry is reported as “+ (compound exhibited 0-25% inhibition at 0.3 μM)”. On the same count and under the same terms, the value for `O=C(CC12CC3CC(CC(C3)C1)C2)Nc1ncnc2c1CCN(C(=O)Cc1ccc(Cl)cc1)C2` [Compound 265] was “++ (compound exhibited 25-50% inhibition at 0.3 μM)”; that for `O=C(CC12CC3CC(CC(C3)C1)C2)Nc1ncnc2c1CCN(Cc1ccc(C(F)(F)F)cc1)C2` [Compound 72] was “+ (compound exhibited 0-25% inhibition at 0.3 μM)”. For the compound `O=C(CC12CC3CC(CC(C3)C1)C2)Nc1ncnc2c1CCN(CCCc1ccccc1)C2` [Compound 63], the IL-1β % inhibition result is given as “+ (compound exhibited 0-25% inhibition at 0.3 μM)”. Take `CC12CC3CC(C)(C1)CC(CC(=O)Nc1ncnc4c1CCN(C(=O)c1c(F)cccc1F)C4)(C3)C2` [Compound 387]: the IL-1β % inhibition entry is “+ (compound exhibited 0-25% inhibition at 0.3 μM)”. Same read-out and setting: the value for `Cc1cccc(C(=O)N2CCc3c(ncnc3NC(=O)C(C)(C)C34CC5CC(CC(C5)C3)C4)C2)c1` [Compound 358] was “+ (compound exhibited 0-25% inhibition at 0.3 μM)”; that for `CC12CC3(C)CC(C)(C1)CC(C(C)(C)C(=O)Nc1ncnc4c1CCN(Cc1ccccc1)C4)(C2)C3` [Compound 345] was “+ (compound exhibited 0-25% inhibition at 0.3 μM)”.

Regarding `CS(=O)(=O)c1ccc(CN2CCc3c(ncnc3NC(=O)CC34CC5CC(CC(C5)C3)C4)C2)cc1` [Compound 15], the IL-1β % inhibition entry is “+ (compound exhibited 0-25% inhibition at 0.3 μM)”.

Staying with this assay, now noted: at 0.3 μM; THP-1 cells, BzATP-stimulated.
For `COc1cc(CN2CCc3c(ncnc3NC(=O)C34CC5CC(CC(C5)C3)C4)C2)ccc1F` [Compound 629], the IL-1β % inhibition entry was “+ (compound exhibited 0-25% inhibition at 0.3 μM)”. With `Cc1nn(C)c(Cl)c1S(=O)(=O)N1CCc2c(ncnc2NC(=O)C23CC4CC(CC(C4)C2)C3)C1` [Compound 495], the IL-1β % inhibition entry is recorded as “++ (compound exhibited 25-50% inhibition at 0.3 μM)”.
